The source of these data is patent US3997403A, “Antibiotic G-418 and the production thereof” (Schering Corporation, priority 1975, dated 1976).

Assay [1] has as its system Bacillus subtilis A.T.C.C. 6633. The assay can be described thus: standard disc plate microbiological assay. The following applies: one microgram of the standard; Difco Antibiotic Medium No. 5. It counts as cell-based. An excerpt:
The assay is a standard disc plate assay using Difco Antibiotic Medium No. 5 and Bacillus subtilis A.T.C.C. 6633 as the test organism. The physical conditions of the test are substantially those described for neomycin (Grove and Randall), Assay Methods of Antibiotics published by Medical Encyclopedia Incorporated (1955). The assay is run against a standard preparation of Antibiotic G-418 having a defined potency of 1000 mcg/mg. […] The standard antibiotic sulfate salt assays about 750 mcg/mg. against the standard antibiotic base.

A further assay has as its system E. Histolytica. The assay can be described thus: Oral activity against experimental cecal E. Histolytica infections in rats. The format is in vivo, male Royal Hart rats. The note with it: for A.D.I. (average degree of infection): scale 0 to 4, controls averaged 2.2. From the text:
Table VII and Table VIII set forth in vivo test results which illustrate the antiprotozoal activity of Antibiotic G-418. The host for the tests were recently weaned male Royal Hart rats (3-4 weeks old) weighing about 50-70 g. The test procedure is a modification of one described by R. J. Schnitzer on pages 355-443 in Experimental Chemotherapy, Vol. 1, Academic Press, New York (1963).
*A.D.I. -- defined as the average degree of infection based upon gross
observations of pathological changes in the cecum and microscopic
observations of the number of amoebae found. These observations are
recorded on a scale of from zero to four, zero representing a
substantially normal cecum. Untreated but infected controls range from
about two to four. In the data set forth the controls averaged 2.2.

In assay [2] the test system is Staphylococcus aureus Gray. The assay can be described thus: In vivo protective activity in infected mice. On the set-up: species or system Carworth Farms CF-1 mice. The note with it: dosed 1 hour after i.p. lethal infection, survival at 48 hours. As to the method:
(§1) In Table VI is set forth in vivo antibacterial data obtained with Antibiotic G-418. The host animals used to obtain the data were Carworth Farms CF-1 mice weighing about 18-20 g. In vivo protection (PD50) is determined by injecting the mice (in groups of seven) intraperitoneally with a lethal dose of pathogenic bacteria. The mice are dosed with Antibiotic G-418 1 hour later. The non-protected controls die in 18-24 hours whereas the survivors are alive 48 hours after infection when the test is terminated. The data is analyzed by standard probit procedures to determine PD50 values with 95% confidence limits.

The subject of the next assay is Eschericia coli Sc. The assay can be described thus: In vivo protective activity in infected mice. More on the design: species or system Carworth Farms CF-1 mice. The following applies: S.C., dosed 1 hour after i.p. lethal infection, survival at 48 hours. As to the method:
as §1

Assay [3] deals with Pseudomonas aeruginosa No. 1. The assay can be described thus: In vivo protective activity in infected mice. More on the design: species or system Carworth Farms CF-1 mice. The note with it: S.C., dosed 1 hour after i.p. lethal infection, survival at 48 hours. As to the method:
as §1

Assay [4] relates to Staphylococcus aureus St. M No. 1. The assay can be described thus: In vivo protective activity in infected mice. More on the design: species or system Carworth Farms CF-1 mice. The note with it: S.C., dosed 1 hour after i.p. lethal infection, survival at 48 hours. As to the method:
as §1

Each structure is given as a SMILES string.

The zone of inhibition is the extent of the growth-free halo in a diffusion test. The compound `CN[C@@H]1[C@@H](O)[C@@H](O[C@@H]2[C@@H](O)[C@H](O[C@H]3O[C@H]([C@@H](C)O)[C@@H](O)[C@H](O)[C@H]3N)[C@@H](N)C[C@H]2N)OC[C@]1(C)O` [Antibiotic G-418] returned a zone of inhibition in assay [1] of 16.5 ± 1.5 mm. Further, the “Parasitological Cure Negative/Total” value in the assay on E. Histolytica (oral 3.5 mg/kg/day, 3 days) is recorded as 0/7; in the assay on E. Histolytica (oral 3.5 mg/kg/day, 6 days) it was 5/6; in the assay on E. Histolytica (oral 6.5 mg/kg/day, 1 day), 2/5; with E. Histolytica (oral 6.5 mg/kg/day, 3 days), 4/5; in the assay with E. Histolytica (oral 6.5 mg/kg/day, 6 days), 4/4; in the assay with E. Histolytica (oral 10 mg/kg/day, 1 day) it was 4/7. Besides, the “Parasitological Cure Negative/Total” value is 7/7 in the assay on E. Histolytica (oral 10 mg/kg/day, 3 days); 24/24 in the assay with E. Histolytica (oral 12.5 mg/kg/day, 6 days); 19/19 with E. Histolytica (oral 25 mg/kg/day, 6 days). The “A.D.I. (average degree of infection)” value was determined as 1.7 with E. Histolytica (oral 3.5 mg/kg/day, 3 days); 0.2 in the assay on E. Histolytica (oral 3.5 mg/kg/day, 6 days); 1.0 in the assay with E. Histolytica (oral 6.5 mg/kg/day, 1 day); 0.4 in the assay with E. Histolytica (oral 6.5 mg/kg/day, 3 days); 0 in the assay on E. Histolytica (oral 6.5 mg/kg/day, 6 days); 0.7 in the assay with E. Histolytica (oral 10 mg/kg/day, 1 day). The “A.D.I. (average degree of infection)” value in the assay with E. Histolytica (oral 10 mg/kg/day, 3 days) is 0; with E. Histolytica (oral 12.5 mg/kg/day, 6 days) it was 0; in the assay on E. Histolytica (oral 25 mg/kg/day, 6 days), 0. For the same compound, the PD50 is 40 mg/kg in assay [2] (Oral); 2.5 mg/kg in assay [2] (S.C.); 1.5 mg/kg in the assay on Eschericia coli Sc.; 5.0 mg/kg in assay [3]; 3.0 mg/kg in assay [4].
